Tested on: cord blood cells
Test: Cord blood cell repopulation in NSG mice
Type: in vivo, human
Settings: day 57 post BMT
Description: FIG. 11A depicts the experimental procedure.

## COc1cccc(CNC(=O)N2C3CN(Cc4cc(Cl)cc(Cl)c4N(C)C)C(=O)[C@H](Cc4ccc(O)cc4)N3C(=O)CN2C)c1OC (some centres unmarked) [YH250]
In vitro treated cells
  human CD34+ cells in bone marrow vs DMSO treated cells: more human CD34+ cells in bone marrow
pre-incubation in vitro 24 hours before BMT
  donor cell engraftment in blood: best engraftment in blood
